Laboratory results as given in EP4656642A1, “ESTROGEN RECEPTOR PROTEOLYSIS TARGETING CHIMERA COMPOUND AND USE THEREOF” (GAN & LEE PHARM CO., LTD, priority 2023, dated 2024).
Where a chain is given by its changes, count along the chain named. Read-outs that look alike come from different tables or passages of the source.

Experiments:
Format in all cases: cell-based
[1] = system: LNCAP FGC cells; assay: Inhibition of LNCAP cell proliferation (WST-8, 96 hours)
Method: Test Example 8 Inhibitory activity of the compounds disclosed in the present disclosure on LNCAP cell proliferation
LNCAP FGC cells (ATCC, CLR-1740) were cultured in RPMI 1640 (ATCC, 30-2001) complete medium containing 10% fetal bovine serum (Hyclone, SH30406.05). On the first day of the experiment, LNCaP FGC cells were inoculated in 96-well plates at a density of 5,000 cells/well using RPMI 1640 medium containing 10% fetal bovine serum, with 100µL of cell suspension per well, and placed in a cell culture incubator with 5% CO2 at 37°C overnight. […] The compound concentrations were prepared in complete […] medium and serially diluted 5-fold starting from 10 µM, resulting in a total of nine concentration points. Wells receiving 100 µL of RPMI 1640 medium containing 10% FBS only were used as controls. The plates were incubated at 37°C in a 5% CO2 incubator for 96 hours.

[2] = molecular target: T1, AR protein (Homo sapiens, UniProt P10275, T878A); assay: Degradation of AR protein in LNCAP cells (Western blot, 8 h); details: LNCaP FGC cells
T1 construct: host or cells: LNCaP FGC
T1 sequence (P10275 1-920 T878A): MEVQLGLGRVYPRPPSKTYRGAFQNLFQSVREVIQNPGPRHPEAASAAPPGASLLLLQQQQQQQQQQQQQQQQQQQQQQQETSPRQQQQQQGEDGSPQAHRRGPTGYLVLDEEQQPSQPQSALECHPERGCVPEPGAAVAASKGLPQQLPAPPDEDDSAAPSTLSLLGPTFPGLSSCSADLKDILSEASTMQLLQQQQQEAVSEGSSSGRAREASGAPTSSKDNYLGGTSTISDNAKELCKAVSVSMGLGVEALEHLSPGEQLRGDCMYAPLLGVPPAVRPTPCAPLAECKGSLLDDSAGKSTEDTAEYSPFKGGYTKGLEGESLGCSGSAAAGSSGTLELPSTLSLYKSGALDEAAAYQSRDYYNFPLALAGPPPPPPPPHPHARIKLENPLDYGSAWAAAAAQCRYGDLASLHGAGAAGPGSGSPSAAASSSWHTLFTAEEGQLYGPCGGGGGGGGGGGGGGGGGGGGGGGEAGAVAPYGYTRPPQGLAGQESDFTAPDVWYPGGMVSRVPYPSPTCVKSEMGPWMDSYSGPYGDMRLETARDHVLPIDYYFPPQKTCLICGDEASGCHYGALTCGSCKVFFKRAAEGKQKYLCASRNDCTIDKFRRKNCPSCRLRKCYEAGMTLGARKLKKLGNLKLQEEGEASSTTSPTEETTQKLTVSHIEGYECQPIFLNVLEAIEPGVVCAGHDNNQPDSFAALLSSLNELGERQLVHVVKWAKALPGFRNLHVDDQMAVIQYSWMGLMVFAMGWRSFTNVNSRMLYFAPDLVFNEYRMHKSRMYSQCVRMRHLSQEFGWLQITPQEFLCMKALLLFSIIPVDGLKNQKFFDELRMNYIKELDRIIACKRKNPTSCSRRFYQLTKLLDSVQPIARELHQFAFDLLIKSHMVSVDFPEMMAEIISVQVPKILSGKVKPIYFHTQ
Method: After 8 h, the culture medium was discarded, and the cells were washed with PBS. After the cells were washed with PBS, RIPA lysis buffer containing 1% Protease Inhibitor Cocktail was added, and the total protein extract was obtained after lysis and centrifugation, and the protein concentration in the extract was detected by BCA method. Protein electrophoresis was carried out by SDS-PAGE, after which the proteins were transferred to PVDF (Millipore Sigma Catalog No. PSRP010R5) membrane by 100V constant voltage electrotransfer for 60 min, and the PVDF membrane was placed in 1×TBST solution with 5% milk and blocked at room temperature for 1h. […] The primary antibody solution was discarded, and the PVDF membrane was washed three times with 1× TBST for 5 min each. […] The secondary antibody solution was discarded, and the PVDF membrane was washed three times with 1× TBST for 5 min each. Western membrane imaging was performed using a dual-color infrared laser imaging system (Licor catalog number Odyssey CLX). Bands were analyzed in grayscale using the software Image Studio. For each sample, GAPDH protein bands were detected as internal reference. The degradation rates of the AR protein for the compounds and positive control sample were calculated based on the grayscale of the protein bands.

[3] = molecular target: T2, AR protein (Homo sapiens, UniProt P10275); details: 8 h
T2 construct: host or cells: VCaP
T2 sequence (P10275 1-920): T1 sequence (P10275 1-920 T878A) with A878T
Method: Test Example 9 Degradation activity of the compounds disclosed in the present disclosure against AR protein in VCAP cells (cell source: ATCC)
AR-positive human prostate cancer cells, VCaP, were inoculated in six-well microplates (Thermo Catalog No. 140675) in DMEM (GiBco Catalog No. 11995-065) containing 10% FBS (Hyclone Catalog No. SH30406.05) at a density of 3 × 10^5 cells/well. […] After 8 h, the culture medium was discarded, and cells were washed with PBS, then RIPA lysis buffer containing 1% Protease Inhibitor Cocktail was added, and the total protein extract was obtained after lysis and centrifugation, and the protein concentration in the extract was detected by BCA method. Protein electrophoresis was carried out by SDS-PAGE, after which the protein was transferred to PVDF (Millipore Sigma catalog number PSRP010R5) membrane by 100V constant-voltage electrotransfer for 60 min, and the PVDF membrane was placed in 1×TBST solution with 5% milk and blocked at room temperature for 1 h. The primary antibody solution (Anti-Androgen receptor, Cell Signaling Technology Catalog No. 5153S; 1: 2000 dilution) was prepared and incubated overnight at 4°C. The primary antibody solution was discarded, and the PVDF membrane was washed three times with 1× TBST for 5 min each. The secondary antibody solution (Thermo catalog number SA5-35571; 1:7500 dilution) was prepared, and the secondary antibody dilution was incubated at room temperature for 1h. The secondary antibody solution was discarded, and the PVDF membrane was washed three times with 1×TBST for 5 min each. Western membrane imaging was performed using a dual-color infrared laser imaging system (Licor catalog number Odyssey CLX). Bands were analyzed in grayscale using the software Image Studio. For each sample, GAPDH protein bands were detected as internal reference. The degradation rates of the AR protein for the compounds and positive control sample were calculated based on the grayscale of the protein bands.

[4] = system: VCaP cells; assay: Inhibition of proliferation of VCaP cells (WST-8, 168 hours)
Method: Test Example 7 Inhibitory activity of the compounds disclosed in the present disclosure on the proliferation of VCaP cells
VCaP cells (ATCC, CRL-2876) were cultured in DMEM (Gibco, 11995-065) complete medium containing 10% fetal bovine serum (Hyclone, SH30406.05). On the first day of the experiment, VCaP cells were inoculated in 96-well plates at a density of 15,000 cells/well using DMEM medium containing 10% fetal bovine serum, with 100µL of cell suspension per well, and placed in a cell culture incubator with 5% CO2 at 37°C overnight. […] The compound concentrations were prepared in complete DMEM medium and serially diluted 5-fold starting from 10 µM, resulting in a total of nine concentration points. Wells receiving 100 µL of DMEM medium containing 10% FBS only were used as blank controls. The plates were incubated at 37°C in a 5% CO2 incubator for 168 hours.

[5] = LNCAP FGC cells, 96 hours, WST-8

| Compound | IC50 [1, 5] [µM] | Degradation rates of the AR protein in LNCAP cells, 10 nM (%) [2] [%] | Degradation rates of the AR protein in LNCAP cells, 100 nM (%) [2] [%] | Degradation rates of the AR protein in VCAP cells, 0.5 nM [3] [%] | Degradation rates of the AR protein in VCAP cells, 5 nM [3] [%] | IC50 [1] [µM] | IC50 [4] [µM] | IC50 ([4]; VCaP cells, 168 hours, WST-8) [µM] |
| --- | --- | --- | --- | --- | --- | --- | --- | --- |
| N#Cc1ccc(O[C@H]2CC[C@H](NC(=O)c3ccc(N4CCC(CN5CCC6(CC5)COc5c6ccc6c5C(=O)N(C5CCC(=O)NC5=O)C6)CC4)nn3)CC2)cc1Cl (relative stereo) [2-313] | 34.3 | 75 | 79 | 78 | 89 | – | – | – |
| COC1(CN2CCC3(CCc4cc5c(cc4O3)C(=O)N(C3CCC(=O)NC3=O)C5)CC2)CCN(c2ccc(N3CCC4(CC3)C[C@H](C)N(c3ccc(C#N)c(Cl)c3)C4)cc2)CC1 (stereo partly drawn) [2-99] | – | – | – | – | – | 2.71 | 0.007 | – |
| C[C@H]1CC2(CCN(c3ccc(N4CCC(C)(CN5CCC6(CCc7cc8c(cc7O6)C(=O)N(C6CCC(=O)NC6=O)C8)CC5)CC4)cc3)CC2)CN1c1ccc(C#N)c(Cl)c1 (stereo partly drawn) [2-101] | – | – | – | – | – | 5.08 | 0.01 | – |
| COc1cc(O[C@H]2CC[C@H](NC(=O)c3ccc(N4CCC(CN5CCC6(CC5)COc5c6ccc6c5C(=O)N(C5CCC(=O)NC5=O)C6)CC4)nn3)CC2)ccc1C#N (relative stereo) [2-314] | 42.4 | 69 | 76 | 86 | 91 | – | – | – |
| COc1cc(O[C@H]2CC[C@H](NC(=O)c3ccc(N4CCC(CN5CCC6(CC5)COc5c6ccc6c5C(=O)N(C5CCC(=O)NC5=O)C6)(OC)CC4)nn3)CC2)ccc1C#N (relative stereo) [2-264] | 33.6 | 52 | 71 | – | – | – | – | 0.003 |
